# Laboratory results as given in US7056697B2, “FabK variant” (priority 2000, dated 2006).
# System: FabK
# Test: FabK activity assay (crotonoyl-ACP reduction, NADH oxidation monitored at 340 nm)
# Format: biochemical, Streptococcus pneumoniae
# Settings: NH4+ at 100 mM; greatest activation
# Method: FabK catalyses the reduction of enoyl-ACPs with the concommitant oxidation of NADH. Crotonoyl-ACP can be prepared as described below. The reduction of crotonoyl-ACP to butyryl-ACP can be monitored by following the change in absorbance at 340 nm as NADH is oxidised.
# Assays were carried out in Costar 3696 half-area plates in a final assay volume of 150 ul on a Spectramax platereader. Substrates, NADH and crotonoyl ACP, were incubated with FabK enzyme in 100 mM N-[2-acetamido]-2 iminodiacetic acid (ADA), pH 6.5, 100 mM NH4Cl, 4% glycerol at 30° C. and the reaction monitored at 340 nm. This assaying can also be performed using crotonyl CoA, NADPH or an NADH analogue as a substrate.
compound,measurement,value
N [NH4^+],activation of the FabK reaction over the reaction with no monovalent cations,about 300 fold
